In patent publication US11396522B2, “Bis-acetal-based substrates for imaging exo-glycosidase activity” (ALECTOS THERAPEUTICS INC., priority 2017, dated 2022):
Entries after “also recorded” stand apart in the source; their conditions may differ.

What was measured:
GBA1 = molecular target: T1, GBA1 (Homo sapiens, UniProt P04062); experiment: Live cell imaging of GBA1 activity in SK-N-SH cells; type: cell-based
T1 sequence (P04062 40-536): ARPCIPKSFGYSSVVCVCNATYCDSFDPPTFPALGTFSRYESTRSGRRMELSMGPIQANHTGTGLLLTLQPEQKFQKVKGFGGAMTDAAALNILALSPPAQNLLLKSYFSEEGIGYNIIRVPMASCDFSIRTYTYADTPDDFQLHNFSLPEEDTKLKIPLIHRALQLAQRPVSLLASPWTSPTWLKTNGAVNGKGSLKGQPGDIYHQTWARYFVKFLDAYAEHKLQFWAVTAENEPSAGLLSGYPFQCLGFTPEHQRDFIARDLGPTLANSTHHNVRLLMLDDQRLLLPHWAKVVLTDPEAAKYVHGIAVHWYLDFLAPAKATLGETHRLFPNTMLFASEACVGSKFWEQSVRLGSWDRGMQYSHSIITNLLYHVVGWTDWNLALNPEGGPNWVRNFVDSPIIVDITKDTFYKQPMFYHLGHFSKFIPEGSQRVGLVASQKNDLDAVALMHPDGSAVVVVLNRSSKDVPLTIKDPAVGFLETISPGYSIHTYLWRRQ
Protocol: SK-N-SH cells were cultured, except where indicated otherwise, in EMEM supplemented with 10% FBS and 1% penicillin-streptomycin at 37° C. and 5% CO2. The media was replaced every 3-4 days and the cells passaged after reaching 70-80% confluency, which occurred approximately every week. For imaging experiments, cells were seeded in triplicate into the central 60 wells of a sterile 96-well plate (Corning 4680) at a density of 10000 cells/well.
Fluorescence measurements in live cells was performed using a Molecular Devices ImageXpress XLS High-Content Imaging system (HCl). Live cells were plated in a 96-well or 384-well Corning plates. Cells were left to adhere and incubated at 37° C. in 5% CO2 for at least 12 h in EMEM supplemented with 10% FBS and 1% penicillin-streptomycin before any treatment. Cells were then washed with warm (37° C.) EMEM (with no phenol red and FBS). A mixture of vehicle, substrate dissolved in DMSO (0.1% final concentration of DMSO), or substrate and inhibitor mixture, were added to the imaging media (EMEM with no phenol red or FBS supplemented with DAPI) which was then added to these cells and incubated at 37° C. and 5% CO2 in the dark for the times specified (typically 2 h). […] For each well, 9 sites were imaged at predefined regions of each well and 2 to 3 channel were recorded (DAPI, FITC, TRITC). The data was analyzed using the MetaXpress software suite. by determining the Mean Integrated Intensity obtained using the TRITC channel and dividing by the number of cells (determined thanks to DAPI staining).
The Glc-H-BABS(TAMRA/BHQ2) 8 was also evaluated in the human neuronal cell culture model cells SK-N-SH. […] By integrating the fluorescence intensity from randomly selected fields, it was possible to observe a quantitative increase in fluorescence with increasing concentrations of the Glc-BABS 8. Next, it was established that there is a dose-dependent cellular fluorescence where a linear increase in fluorescence was observed that depended on the concentration of Glc-BABS 8 (FIG. 12). […]

hOGA = molecular target: T2, hOGA (Homo sapiens, UniProt O60502); experiment: Interrupted assay for determination of hemiacetal breakdown; type: biochemical
T2 construct: started by addition of hOGA (WT, Full-length, expressed in E. coli. as previously described); made in house; host or cells: E. coli
T2 sequence (O60502 1-916): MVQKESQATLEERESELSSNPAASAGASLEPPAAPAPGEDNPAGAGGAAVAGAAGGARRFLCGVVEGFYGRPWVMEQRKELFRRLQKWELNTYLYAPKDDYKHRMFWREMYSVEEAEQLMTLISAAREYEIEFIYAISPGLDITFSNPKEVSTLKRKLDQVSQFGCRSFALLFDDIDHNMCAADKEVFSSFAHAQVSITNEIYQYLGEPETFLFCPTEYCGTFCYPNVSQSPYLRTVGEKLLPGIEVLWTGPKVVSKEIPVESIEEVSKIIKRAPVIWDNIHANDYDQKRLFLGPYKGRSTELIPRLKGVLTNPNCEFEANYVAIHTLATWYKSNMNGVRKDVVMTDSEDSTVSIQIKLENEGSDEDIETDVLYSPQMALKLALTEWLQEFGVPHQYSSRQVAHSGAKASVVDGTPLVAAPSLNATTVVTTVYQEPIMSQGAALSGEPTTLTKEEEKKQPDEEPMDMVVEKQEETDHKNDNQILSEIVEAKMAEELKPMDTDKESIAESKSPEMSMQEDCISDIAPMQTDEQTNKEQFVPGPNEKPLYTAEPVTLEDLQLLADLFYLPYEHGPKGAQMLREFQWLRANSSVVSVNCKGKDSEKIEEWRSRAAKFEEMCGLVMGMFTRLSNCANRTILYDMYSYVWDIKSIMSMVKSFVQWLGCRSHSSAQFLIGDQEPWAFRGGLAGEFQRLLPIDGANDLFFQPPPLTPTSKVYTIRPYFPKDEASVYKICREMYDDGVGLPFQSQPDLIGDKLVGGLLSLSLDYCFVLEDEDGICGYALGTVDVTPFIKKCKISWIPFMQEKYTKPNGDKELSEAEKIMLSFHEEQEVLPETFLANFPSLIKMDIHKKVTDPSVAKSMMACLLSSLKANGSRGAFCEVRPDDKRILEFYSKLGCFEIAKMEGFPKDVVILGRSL
Protocol: For some experiments, fluorescence kinetic assays were performed using a Varian Cary Eclipse Spectrophotometer set for 335/493 nm excitation/emission wavelengths. Slits were set at 10 nm and the detector was set on Medium voltage. Enzymatic reactions with human OGA were carried out in PBS at 37° C. and were started by addition of hOGA (WT, Full-length, expressed in E. coli. as previously described) in a total volume of 160 μL (Starna sub-micro Fluorometer cuvette). For measurements of rates using different concentrations of substrates, a hOGA concentration of 100 nM was used. For hOGA titration, 25 μM of Glyco-BABS were added to various concentration of hOGA. For interrupted assay, reaction was started by addition of hOGA (680 nM final) in solutions of GlcNAc-BABS in PBS. […] For hemiacetal breakdown rate measurements, data after Thiamet-G addition was extracted and fitted using Prism software. EDANS standard curve was established using endpoint fluorescence measurements of serial dilutions of EDANS in the relevant buffer using the same instrument parameters. Inner-Filter effect measurements were carried out in cuvette by measuring fluorescence of several concentrations of EDANS in presence of various concentrations of GlcNAc-BABS. Kinetics with Glc-BABS and GBA enzymes (GBA1 and GBA3 purchased from R&D Systems), kinetics with GALC (R&D systems) and Gal-BABS, pH stability, quenching efficiency, some inner-filter effect experiments and lysates experiments were carried out using a Molecular Devices SpectraMax i3× plate reader. Emission/Excitation wavelengths were set at 350 and 490 nm respectively for EDANS/DABCYL Glyco-BABS and at 565 and 610 nm respectively for TAMRA/BHQ2 Glyco-BABS. Fluorescence measurements were performed using Costar 96-well black plates or Nunc 384-well black plates after sample preparation in 96-well mixing plates. For GBA1, the continuous assay was performed in citrate buffer (50 mM, pH 5.5) in the presence of 0.1% Triton, 1 mg/mL BSA and 0.14% taurodeoxycholate at 25° C. […]

[1] = pH stability of Glyco-BABS; type: physicochemical; conditions: 5 μM, up to 72 h, pH 2 to 10
From the text: One concern with the Glyco-BABS design was the known lability of acetals under acidic conditions that has been exploited in pH-sensitive prodrugs or linkers for drug delivery.^41,42 However, we recognized that carbohydrate anomeric acetals are chemically distinct from regular acetals. Due to stabilization by the endocyclic oxygen, we expected these bis-acetals would show stability across a range of physiological pH values. We therefore assessed the stability of the bis-acetal motif toward acid and base hydrolysis (FIG. 8). To do so, we tested the pH stability of 5 μM of GlcNAc-Br-BABS 1, GlcNAc-OH-BABS 2, Glc-OH-BABS 6 and Glc-H-BABS 7 at different pH over time. We prepared solutions at various pH by mixing 0.2 M KCl+0.1 M HCl with 0.2 M KCl+0.1 M KOH. Fluorescence of EDANS and Glyco-BABS solutions (5 μM, 45 μL) at different pH was measured at different time points in Nunc 384-well plates using a SpectraMax i3× plate reader. Data (triplicates) support the highly efficient quenching and the stability of these substrates over a wide range of pH.

## O[C@H]1[C@H](O)CNC[C@@H]1C(F)F [AT3375, (3R,4R,5S)-5-(difluoromethyl)piperidine-3,4-diol]
GBA1; 10 μM AT3375 with 5 μM Glc-BABS 8
  effect on fluorescent signal of Glc-BABS 8 in live SK-N-SH cells: significant reduction; also recorded: clear decrease of the signal
GBA1; varying AT3375 concentrations, 5 μM Glc-BABS 8, 2 h
  fluorescence signal vs inhibitor concentration in live SK-N-SH cells: decreasing fluorescence signal with increasing inhibitor concentration

## CC(=O)N[C@H]1[C@H](O[C@@H](OCCOCCn2cc(CNC(=O)c3ccc(/N=N/c4ccc(N(C)C)cc4)cc3)nn2)[C@@](C)(O)C(=O)NCCNc2cccc3c(S(=O)(=O)O)cccc23)O[C@H](CO)[C@@H](O)[C@@H]1O [Compound 2, 5-((2-((2R,3R)-3-(((2S,3R,4R,5S,6R)-3-acetamido-4,5-dihydroxy-6-(hydroxymethyl)tetrahydro-2H-pyran-2-yl)oxy)-3-(2-(2-(4-((4-((E)-(4-(dimethylamino)phenyl)diazenyl)benzamido)methyl)-1H-1,2,3-triazol-1-yl)ethoxy)ethoxy)-2-hydroxy-2-methylpropanamido)ethyl)amino)naphthalene-1-sulfonic Acid]
hOGA; hemiacetal generated from the substrate, hOGA stopped after 1 min with Thiamet-G 100 μM
  first order rate constant (k3) for hemiacetal breakdown: 0.044 s⁻¹
hOGA; ratio of k3
  hemiacetal breakdown, times faster than the one from GlcNAc-Br-BABS 1: 4.5 times
[1]
  pH stability (increase of fluorescence): no significant increase of fluorescence

## COc1cc(/N=N/c2ccc([N+](=O)[O-])cc2)c(OC)cc1/N=N/c1ccc(N(C)CCCC(=O)NCc2cn(CCOCCOC(CC(=O)NCCCCCCNC(=O)c3ccc(-c4c5ccc(=[N+](C)C)cc-5oc5cc(N(C)C)ccc45)c(C(=O)[O-])c3)O[C@@H]3O[C@H](CO)[C@@H](O)[C@H](O)[C@H]3O)nn2)cc1 (stereo partly drawn) [Compound 8, 5-((6-(3-(2-(2-(4-((4-((4-((E)-(2,5-dimethoxy-4-((E)-(4-nitrophenyl)diazenyl)phenyl)diazenyl)phenyl)(methyl)amino)butanamido)methyl)-1H-1,2,3-triazol-1-yl)ethoxy)ethoxy)-3-(((2S,3R,4S,5S,6R)-3,4,5-trihydroxy-6-(hydroxymethyl)tetrahydro-2H-pyran-2-yl)oxy)propanamido)hexyl)carbamoyl)-2-(6-(dimethylamino)-3-(dimethyliminio)-3H-xanthen-9-yl)benzoate]
GBA1; 5 μM and varying concentrations, 1 to 2 h
  processing to fluorescent product in live SK-N-SH cells: processed in cells to result in the fluorescent product
